Measurements as given in US12649735B2 (HAIHE BIOPHARMA CO., LTD., priority 2019, dated 2026).

Experiments:
acute leukemia tumors = conditions: mice, administered orally, 60 mg/kg per day; cited from earlier work
BRD4-BD2 = conditions: cited from earlier work
[1] = biological target: T1, bromodomain protein BRD4 BD1 (Homo sapiens, UniProt O60885); experiment: HTRF in vitro assay, inhibitory activity against BRD4 BD1; assay type: binding; conditions: BRD4(1) 30 nM in final system
T1 construct: The proteins BRD4 BD1/BD2 used in the experiment were purchased from Active Motif Company (Cat. No. 31380/31446); purchased Active Motif 31380

[2] = biological target: T2, bromodomain protein BRD4 BD2 (Homo sapiens, UniProt O60885); experiment: HTRF in vitro assay, inhibitory activity against BRD4 BD2; assay type: binding; conditions: BRD4(2) 30 nM in final system
T2 construct: The proteins BRD4 BD1/BD2 used in the experiment were purchased from Active Motif Company (Cat. No. 31380/31446); purchased Active Motif 31446

Compound | IC50 [1] [nM] | IC50 [2] [nM] | inhibits acute leukemia tumors (acute leukemia tumors) [%] | selectivity (BD2/BD1) (BRD4-BD2) [times]
Cc1noc2c1-c1ccccc1C(c1ccc(Cl)cc1)=N[C@H]2CC(N)=O [CPI-0610] |  |  | 41 | 
CCNC(=O)c1cc2c(-c3cc(C(C)(C)O)ccc3Oc3c(C)cc(F)cc3C)cn(C)c(=O)c2[nH]1 [Abbv744] |  |  |  | > 100
Cn1cc(C(CCO)c2ccccn2)c2cc(C(=O)NC3CC3)[nH]c2c1=O (stereo not shown) [Compound A9, N-cyclopropyl-4-(3-hydroxy-1-(pyridin-2-yl)propyl)-6-methyl-7-oxo-6,7-dihydro-1H-pyrrolo[2,3-c]pyridin-2-carboxamide] | 100 to 1000 | 10 to 100 |  | 
CCNC(=O)c1cc2c(-c3cc(C(C)=O)c4cccnc4c3OC)cn(C)c(=O)c2[nH]1 [Compound A37, 4-(5-acetyl-8-methoxyquinolin-7-yl)-N-ethyl-6-methyl-7-oxo-6,7-dihydro-1H-pyrrolo[2,3-c]pyridin-2-carboxamide] | 100 to 1000 | 10 to 100 |  | 
CCNC(=O)n1cc2c(C(OC)c3ccccc3)cn(C)c(=O)c2c1 (stereo not shown) [Compound A4, N-ethyl-7-(methoxy(phenyl)methyl)-5-methyl-4-oxo-4,5-dihydro-2H-pyrrolo[3,4-c]pyridin-2-carboxamide] | 100 to 1000 | 10 to 100 |  | 
CC(c1ccccc1)c1cn(C)c(=O)c2[nH]c(-c3cncnc3)cc12 (stereo not shown) [Compound A45] | 10 to 100 | ≤ 10 |  | 
Cc1cc(C)cc(-n2c(-c3cn(C)c(=O)c4[nH]c(C(=O)Nc5ccn(C)n5)cc34)nc3ncccc32)c1 [Compound A51] | 10 to 100 | ≤ 10 |  | 
4-diphenylmethyl-N-ethylamino-6-methyl-7-oxo-6,7-dihydro-1H-pyrrolo[2,3-c]pyridin-2-carboxamide [Compound A29] | 100 to 1000 | 10 to 100 |  | 
CC(c1ccccc1)c1cn(C)c(=O)c2[nH]c(-c3cnn(C4COC4)c3)cc12 (stereo not shown) [Compound A17, 6-methyl-2-(1-(oxetan-3-yl)-1H-pyrazol-4-yl)-4-(1-phenethyl)-1,6-dihydro-7H-pyrrolo[2,3-c]pyridin-7-one] | 100 to 1000 | ≤ 10 |  | 

More lines, main results first:

IC50 [1] [nM] | IC50 [2] [nM] | Compound | inhibits acute leukemia tumors (acute leukemia tumors) [%] | selectivity (BD2/BD1) (BRD4-BD2) [times]
100 to 1000 | 10 to 100 | CC(c1ccccc1)c1cn(C)c(=O)c2cc(-c3cnn(C4COC4)c3)oc12 (stereo not shown) [Compound A59, 5-methyl-2-(1-(oxetan-3-yl)-1H-pyrazol-4-yl)-7-(1-phenethyl)furo[3,2-c]pyridin-4(5H)-one] |  | 
100 to 1000 | ≤ 10 | 6-methyl-7-carbonyl-4-(1-phenylethyl)-N-(1H-pyrazol-4-yl)-6,7-dihydro-1H-pyrrolo[2,3]pyridin-2-carboxamide [Compound A7] |  | 
100 to 1000 | ≤ 10 | CC(c1cccc(Cl)c1F)c1cn(C)c(=O)c2[nH]c(-c3cnn(C4COC4)c3)cc12 (stereo not shown) [Compound A75, 4-(1-(3-chloro-2-fluorophenyl)ethyl)-6-methyl-2-(1-(oxetan-3-yl)-1H-pyrazol-4-yl)-1,6-dihydro-7H-pyrrolo[2,3-c]pyridin-7-one] |  | 
100 to 1000 | ≤ 10 | CC(c1ccc2ccccc2c1)c1cn(C)c(=O)c2[nH]c(C(=O)Nc3cnn(C)c3)cc12 (stereo not shown) [Compound A13] |  | 
100 to 1000 | 10 to 100 | Cc1ccc(C2CCC(=O)N2c2cn(C)c(=O)c3[nH]c(-c4cnn(C)c4)cc23)cc1 (stereo not shown) [Compound A48, 6-methyl-2-(1-methyl-1H-pyrazol-4-yl)-4-(2-oxo-5-(p-tolyl)pyrrolidin-1-yl)-1,6-dihydro-7H-pyrrolo[2,3-c]pyridin-7-one] |  | 
100 to 1000 | 10 to 100 | Cn1cc(Oc2ccccc2)c2cc(-c3cnn(C4COC4)c3)[nH]c2c1=O [Compound A68, 6-methyl-2-(1-(oxetan-3-yl)-1H-pyrazol-4-yl)-4-phenoxy-1,6-dihydro-7H-pyrrolo[2,3-c]pyridin-7-one] |  | 
